# In patent US20100304418A1, “Compositions and Methods for Monitoring Flow Through Fluid Conducting and Containment Systems” (priority 2007, published 2010):
# Experiments:
# [1] = tested on: seawater bacteria; conditions: 28 day seawater test
# [2] = Biodegradation, 28 day seawater test, OECD 306; conditions: over 28 days
# [3] = Heat treatment of GFP solution with added biotin; conditions: 100° C. for 1 hour in GFP solution
# Experimental: The sample has high fluorescence from the GFP. This solution was treated in 2 ways (a) no treatment (b) heat treated (samples were heated to 100° C. for 1 hour in an oven).
# [4] = biological target: T1, galactose oxidase (Gibberella zeae, UniProt P0CS93); assay type: biochemical
# [5] = biological target: T1, galactose oxidase
# [6] = Thermal stability of galactose and derivatives; conditions: 20 h
# Experimental: The thermal stability of both galactose and octy-galactose was investigated. Galactose and octyl-galacotse solutions (50 ppm, 30 mL) were prepared in both deionised water and formation water. These solutions were divided and the pH of one water sample and one formation water sample was adjusted to 2 with HCl. 4.5 mL of each solution was placed in a duran bottle with Teflon tape wrapped around the threads to prevent evaporation. The eight samples were heated at 100 or 120° C. for 20 h. The remaining solutions were kept at 4° C. inbetween experiments. Each of the samples was diluted 10-fold before analysis.
# [7] = Thermostability of xanthine and hypoxanthine; conditions: room temperature and 120° C., 20 h, acidic and neutral pH
# Experimental: These solutions were divided and the pH of one sample of each compound was adjusted to 2 with HCl. 4.5 mL of each solution was placed in a duran bottle with Teflon tape wrapped around the threads to prevent evaporation. The samples were heated at 120° C. for 20 h. The remaining solutions were kept at 25° C. Each of the samples was diluted 10-fold to 7.5 ppm before analysis.
# [8] = biological target: T2, xanthine oxidase (Bos taurus, UniProt P80457); assay: Limit of detection of xanthine and hypoxanthine, xanthine oxidase / Amplex Red assay
# T2 construct: purchased
# T2 sequence (P80457 whole entry): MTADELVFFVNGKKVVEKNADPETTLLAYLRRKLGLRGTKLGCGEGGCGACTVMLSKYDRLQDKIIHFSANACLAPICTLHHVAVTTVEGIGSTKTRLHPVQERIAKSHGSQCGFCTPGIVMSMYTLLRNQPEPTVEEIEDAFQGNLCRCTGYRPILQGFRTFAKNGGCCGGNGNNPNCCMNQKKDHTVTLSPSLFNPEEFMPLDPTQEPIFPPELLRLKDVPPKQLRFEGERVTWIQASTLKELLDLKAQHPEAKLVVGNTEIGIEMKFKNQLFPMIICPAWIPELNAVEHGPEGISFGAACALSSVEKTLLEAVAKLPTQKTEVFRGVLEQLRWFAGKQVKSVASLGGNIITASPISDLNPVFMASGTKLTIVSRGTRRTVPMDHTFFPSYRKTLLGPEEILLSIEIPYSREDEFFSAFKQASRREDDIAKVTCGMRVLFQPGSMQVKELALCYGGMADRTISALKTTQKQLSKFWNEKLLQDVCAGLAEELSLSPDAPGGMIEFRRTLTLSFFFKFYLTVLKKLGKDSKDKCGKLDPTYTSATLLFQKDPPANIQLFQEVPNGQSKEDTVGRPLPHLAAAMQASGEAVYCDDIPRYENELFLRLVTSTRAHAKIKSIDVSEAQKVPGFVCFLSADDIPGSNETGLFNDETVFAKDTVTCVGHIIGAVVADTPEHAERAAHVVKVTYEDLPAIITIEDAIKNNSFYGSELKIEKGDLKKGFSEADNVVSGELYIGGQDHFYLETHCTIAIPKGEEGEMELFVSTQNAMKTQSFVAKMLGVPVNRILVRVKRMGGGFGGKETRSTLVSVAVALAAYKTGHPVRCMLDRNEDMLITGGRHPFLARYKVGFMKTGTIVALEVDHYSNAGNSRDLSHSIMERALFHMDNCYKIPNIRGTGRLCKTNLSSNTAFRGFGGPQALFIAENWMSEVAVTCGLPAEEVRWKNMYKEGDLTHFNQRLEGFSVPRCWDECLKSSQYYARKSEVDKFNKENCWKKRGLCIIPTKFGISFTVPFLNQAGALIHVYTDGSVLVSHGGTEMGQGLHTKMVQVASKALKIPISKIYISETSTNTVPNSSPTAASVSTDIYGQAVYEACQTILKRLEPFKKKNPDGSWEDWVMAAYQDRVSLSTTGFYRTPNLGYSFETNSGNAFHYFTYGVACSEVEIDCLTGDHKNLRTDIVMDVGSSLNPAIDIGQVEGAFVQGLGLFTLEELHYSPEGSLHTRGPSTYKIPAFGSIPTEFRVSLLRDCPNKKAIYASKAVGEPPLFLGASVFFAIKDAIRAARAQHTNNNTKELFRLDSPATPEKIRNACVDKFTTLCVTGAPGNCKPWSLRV
# Text: This assay uses xanthine oxidase to catalyze the oxidation of hypoxanthine or xanthine, to uric acid and superoxide. The superoxide spontaneously degrades to hydrogen peroxide (H2O2), which reacts stoichiometrically with Amplex® Red in the presence of horseradishperoxidase (HRP). A fluorescent product, resorufin, is generated which can be detected fluorometrically or spectrophotometrically.
# T1 sequence (P0CS93 42-680 limits assumed): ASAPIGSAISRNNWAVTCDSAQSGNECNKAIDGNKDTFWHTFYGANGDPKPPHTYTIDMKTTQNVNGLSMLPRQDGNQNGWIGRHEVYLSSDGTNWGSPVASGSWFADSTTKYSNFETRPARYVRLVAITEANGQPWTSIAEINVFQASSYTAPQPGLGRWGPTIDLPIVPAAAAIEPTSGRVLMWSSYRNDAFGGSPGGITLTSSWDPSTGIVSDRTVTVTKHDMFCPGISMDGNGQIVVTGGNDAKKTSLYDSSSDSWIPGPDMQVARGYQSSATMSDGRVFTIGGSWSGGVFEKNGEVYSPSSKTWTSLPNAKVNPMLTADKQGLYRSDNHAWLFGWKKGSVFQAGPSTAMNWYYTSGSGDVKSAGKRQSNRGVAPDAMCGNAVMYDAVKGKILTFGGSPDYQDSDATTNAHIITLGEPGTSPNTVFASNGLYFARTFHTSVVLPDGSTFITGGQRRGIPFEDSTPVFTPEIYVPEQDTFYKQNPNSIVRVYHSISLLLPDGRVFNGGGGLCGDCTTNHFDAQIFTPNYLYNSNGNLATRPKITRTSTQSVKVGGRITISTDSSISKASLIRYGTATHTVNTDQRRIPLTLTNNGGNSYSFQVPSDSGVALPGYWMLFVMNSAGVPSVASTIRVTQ
structure (smiles),measurement,setting,value
O=C(O)CCCC[C@@H]1SC[C@@H]2NC(=O)N[C@@H]21 [biotin],drop in fluorescence after heat and pressure,"250 nM in synthetic formation water, 150° C., 3 kbar, 15 minutes",no obvious drop in fluorescence
same,loss of fluorescence due to temperature and pressure,"dilution series, increasing temperatures up to 150° C., 4 kbar, aqueous phase of produced fluids",No loss of fluorescence
same,inhibition to seawater bacteria,[1],42%
same,degradation,[2],14%
same,effect of heat treatment on biotin detection,[3],unaffected
O=C(CO)[C@@H](O)[C@H](O)[C@H](O)CO [fructose],oxidation by galactose oxidase / interference with galactose assay,[4],can be oxidized by galactose oxidase
O=C[C@H](O)[C@@H](O)[C@@H](O)[C@H](O)CO [galactose],detectable concentration range,[5],0-30 ppm
same,limit of detection,[5],ca. 0.3 ppm
same,thermal stability,[6]; above 100° C. (120° C.),a drop in concentration is observed
same,thermal stability,"[6]; to 100° C., water and formation water, pH 6-7 and pH 2",sufficiently stable
O=c1[nH]cnc2nc[nH]c12 [hypoxanthine],thermal stability,[7],stable
same,limit of detection,[8],> 0.02 ppm
O=c1[nH]c(=O)c2[nH]cnc2[nH]1 [xanthine],limit of detection,[8],less than 0.16 ppm
